The term EC50 denotes the concentration that produces a half-maximal response.

The structures appear in SMILES notation.

For this test, the target named is human opioid receptor-like (ORL-1) (Homo sapiens (Human), UniProt P41146). Kind of test: In vitro ORL-1 receptor [35S]GTPγS functional assay. Type of test: biochemical.
human opioid receptor-like (ORL-1), sequence (P41146 whole entry): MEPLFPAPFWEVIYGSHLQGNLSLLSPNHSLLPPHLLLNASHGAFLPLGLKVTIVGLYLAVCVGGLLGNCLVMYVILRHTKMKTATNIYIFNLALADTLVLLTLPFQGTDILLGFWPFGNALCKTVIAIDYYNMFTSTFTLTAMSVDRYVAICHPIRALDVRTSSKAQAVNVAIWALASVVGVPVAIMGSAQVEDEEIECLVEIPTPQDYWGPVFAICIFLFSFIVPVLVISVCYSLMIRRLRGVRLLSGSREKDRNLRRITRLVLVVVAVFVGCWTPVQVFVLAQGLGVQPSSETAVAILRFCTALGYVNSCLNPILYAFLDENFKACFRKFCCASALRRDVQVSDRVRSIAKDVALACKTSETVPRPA
Regarding `CCOC(=O)CNc1nc2ccccc2n(C2CCN(C3CCCCCCC3)CC2)c1=O` [compound 57], a half-maximal effect (EC50) was put at 486 ± 34 nM.

In turn, `O=C(c1nc2ccccc2n(C2CCN(C3CCCCCCC3)CC2)c1=O)N1CC2CNCC2C1` (stereo not drawn) [compound 73, 1-(1-cyclooctylpiperidin-4-yl)-3-(octahydropyrrolo[3,4-c]pyrrole-2-carbonyl)quinoxalin-2(1H)-one] gave an EC50 of 377 ± 115 nM. The compound `COC(=O)[C@@H]1C[C@@H](O)CN1c1nc2ccccc2n(C2CCN(C3CCCCCCC3)CC2)c1=O` [compound 28] showed an EC50 of 1880 ± 285 nM. In the case of `O=C(O)c1nc2ccc(F)cc2n([C@H]2C[C@H]3CC[C@@H](C2)N3C2CCCCCCC2)c1=O` [compound 133], the EC50 turned out to be 473 ± 27 nM. As to `O=c1c(NCC(O)CO)nc2ccccc2n1C1CCN(C2CCCCCCC2)CC1` (stereo not drawn) [compound 25, 1-(1-cyclooctylpiperidin-4-yl)-3-(2,3-dihydroxypropylamino)quinoxalin-2(1H)-one], a half-maximal effect (EC50) was put at 781 ± 26 nM. For the compound `NCC(O)CNc1nc2ccccc2n(C2CCN(C3CCCCCCC3)CC2)c1=O` (stereo not drawn) [compound 58], the EC50 was 151 ± 7.9 nM. Consider `O=C(O)CC(NC(=O)c1nc2ccccc2n([C@H]2C[C@H]3CC[C@@H](C2)N3C2CCCCCCC2)c1=O)C(=O)O` (stereo partly drawn) [compound 310, 2-(4-((endo)-8-cyclooctyl-8-azabicyclo[3.2.1]octan-3-yl)-3-oxo-3,4-dihydroquinoxaline-2-carboxamido)succinic acid], for which the EC50 stood at 419 ± 62 nM.

In turn, `CC(C)(C)OC(=O)NC1CCN(c2nc3ccccc3n(C3CCN(C4CCCCCCC4)CC3)c2=O)CC1` [compound 21] displayed an EC50 of 1470 ± 50 nM.

The compound `CC(=O)N[C@@H]1CCN(c2nc3ccccc3n(C3CCN(C4CCCCCCC4)CC3)c2=O)C1` [compound 37] yielded an EC50 of 265 ± 31 nM. With `C=CCNc1nc2ccccc2n(C2CCN(C3CCCCCCC3)CC2)c1=O` [compound 24, 3-(allylamino)-1-(1-cyclooctylpiperidin-4-yl)quinoxalin-2(1H)-one], the concentration giving a half-maximal response (EC50) stood at 611 ± 71 nM. On to `CC(=O)Nc1nc2ccccc2n(C2CCN(C3CCCCCCC3)CC2)c1=O` [compound 17, N-(4-(1-cyclooctylpiperidin-4-yl)-3-oxo-3,4-dihydroquinoxalin-2-yl)acetamide], for which the EC50 was found to be 7870 ± 2230 nM. Under `O=c1c(NC[C@@H](O)CO)nc2ccccc2n1C1CCN(C23CC4CC(CC(C4)C2)C3)CC1` [compound 89] stands 806 ± 85 nM; under `O=C(O)c1ccc(CNC(=O)c2nc3ccccc3n([C@H]3C[C@H]4CC[C@@H](C3)N4C3CCCCCCC3)c2=O)cc1` [compound 314], 453 ± 66 nM. With `CNC(=O)c1nc2ccccc2n(C2CCN(C3CCCCCCC3)CC2)c1=O` [compound 78], the response was half-maximal at 363 ± 20 nM (EC50). Under `O=C1CN(c2nc3ccccc3n(C3CCN(C4CCCCCCC4)CC3)c2=O)CCN1` [compound 18, 1-(1-cyclooctylpiperidin-4-yl)-3-(3-oxopiperazin-1-yl)quinoxalin-2(1H)-one] stands 1280 ± 84 nM. Under `CC(=O)N[C@H]1CCN(c2nc3ccccc3n(C3CCN(C4CCCCCCC4)CC3)c2=O)C1` [compound 59] stands 383 ± 63 nM. Under `CC(=O)N1CCC(Nc2nc3ccccc3n(C3CCN(C4CCCCCCC4)CC3)c2=O)CC1` [compound 49] stands 808 ± 110 nM; under `CCOC(=O)CN(C)c1nc2ccccc2n(C2CCN(C3CCCCCCC3)CC2)c1=O` [compound 61], 1230 ± 238 nM. For the compound `CC(C)(C)OC(=O)N1CCN(c2nc3ccccc3n(C3CCN(C4CCCCCCC4)CC3)c2=O)CC1` [compound 8, tert-butyl 4-(4-(1-cyclooctylpiperidin-4-yl)-3-oxo-3,4-dihydroquinoxalin-2-yl)piperazine-1-carboxylate], the EC50 stood at 4560 ± 1120 nM. For the compound `O=C(O)c1nc2ccccc2n([C@H]2C[C@H]3CCCC[C@@H](C2)N3C2/C=C\CCCCC2)c1=O` (stereo partly drawn) [compound 359], the EC50 was found to be 134 ± 2.7 nM. Regarding `CC1(N2[C@@H]3CCC[C@H]2C[C@@H](n2c(=O)c(C(=O)O)nc4ccccc42)C3)CCCCCCC1` [compound 335], the EC50 was 174 ± 10 nM. Consider `O=C(O)c1nc2ccccc2n([C@H]2C[C@H]3CCC[C@@H](C2)N3CCC2CCCCC2)c1=O` [compound 372], for which the EC50 is 214 ± 57 nM. For `COC(=O)C1CCN(c2nc3ccccc3n(C3CCN(C4CCCCCCC4)CC3)c2=O)CC1` [compound 16], the EC50 was found to be 3750 ± 93 nM.

For `O=C1CCN(c2nc3ccccc3n(C3CCN(C4CCCCCCC4)CC3)c2=O)N1` [compound 119, 1-(1-cyclooctylpiperidin-4-yl)-3-(3-oxopyrazolidin-1-yl)quinoxalin-2(1H)-one], the midpoint of the response, the EC50, lay at 3660 ± 171 nM. For `O=C(O)c1cccc(CNc2nc3ccccc3n([C@H]3C[C@H]4CC[C@@H](C3)N4C3CCCCCCC3)c2=O)c1` [compound 305], the EC50 worked out at 394 ± 53 nM. Turning to `CC(C)CC(C)N1[C@@H]2CCC[C@H]1C[C@@H](n1c(=O)c(C(=O)O)nc3ccccc31)C2` (stereo partly drawn) [compound 304], the EC50 is 150 ± 6 nM. For the compound `O=C(NOCc1ccccc1)c1nc2ccccc2n(C2CCN(C3CCCCCCC3)CC2)c1=O` [compound 84], a half-maximal effect (EC50) was put at 182 ± 22 nM. Take `NC(=O)CNc1nc2ccccc2n(C2CCN(C34CC5CC(CC(C5)C3)C4)CC2)c1=O` [compound 64]: the EC50 came to 457 ± 90 nM. `COC(=O)c1ccc2c(c1)CN(c1nc3ccccc3n(C3CCN(C4CCCCCCC4)CC3)c1=O)CC2` [compound 44] had an EC50 of 392 ± 6.6 nM. Under `CONC(=O)c1nc2ccccc2n([C@H]2C[C@H]3CC[C@@H](C2)N3C2CCCCCCC2)c1=O` [compound 121] stands 265 ± 27 nM; under `NC(=O)C1CCCN(c2nc3ccccc3n(C3CCN(C4CCCCCCC4)CC3)c2=O)C1` (stereo not drawn) [compound 60], 2140 ± 661 nM; under `O=C(NCC(O)CO)c1nc2ccccc2n(C2CCN(C3CCCCCCC3)CC2)c1=O` (stereo not drawn) [compound 79], 703 ± 39 nM.

`CC(C)(C)OC(=O)Nc1nc2ccccc2n(C2CCN(C3CCCCCCC3)CC2)c1=O` [compound 14, tert-butyl 4-(1-cyclooctylpiperidin-4-yl)-3-oxo-3,4-dihydroquinoxalin-2-ylcarbamate] gave an EC50 of 4650 ± 238 nM. Take `NC(=O)[C@@H]1CCCN1c1nc2ccccc2n(C2CCN(C3CCCCCCC3)CC2)c1=O` [compound 42]: the EC50 is 543 ± 27 nM. Turning to `O=C(O)c1nc2ccccc2n([C@H]2C[C@H]3CC[C@@H](C2)N3C23CC4CC(CC2C4)C3)c1=O` [compound 320], the response was half-maximal at 104 ± 7.8 nM (EC50). Under `CN(CC(=O)O)C(=O)c1nc2ccccc2n([C@H]2C[C@H]3CC[C@@H](C2)N3C2CCCCCCC2)c1=O` [compound 307, 2-(4-((endo)-8-cyclooctyl-8-azabicyclo[3.2.1]octan-3-yl)-N-methyl-3-oxo-3,4-dihydroquinoxaline-2-carboxamido)acetic acid] stands 400 ± 72 nM. The compound `CC(C)(C)OC(=O)NCCNc1nc2ccccc2n(C2CCN(C3CCCCCCC3)CC2)c1=O` [compound 7, tert-butyl 2-(4-(1-cyclooctylpiperidin-4-yl)-3-oxo-3,4-dihydroquinoxalin-2-ylamino)ethylcarbamate] returned an EC50 of 979 ± 40 nM. Under `N#Cc1nc2ccccc2n(C2CCN(C3CCCCCCC3)CC2)c1=O` [compound 88] stands 201 ± 27 nM; under `O=c1c(N2CC[C@@H](O)C2)nc2ccccc2n1C1CCN(C2CCCCCCC2)CC1` [compound 92], 510 ± 100 nM; under `O=c1c(N2CC[C@H](O)C2)nc2ccccc2n1C1CCN(C2CCCCCCC2)CC1` [compound 68], 478 ± 6.4 nM.

The compound `NC(=O)[C@H](CO)Nc1nc2ccccc2n(C2CCN(C3CCCCCCC3)CC2)c1=O` [compound 33] registered an EC50 of 211 ± 21 nM. In turn, `NC(=O)C1CCN(c2nc3ccccc3n(C3CCN(C4CCCCCCC4)CC3)c2=O)CC1` [compound 29] yielded an EC50 of 468 ± 81 nM. Compound `O=C(O)c1nc2ccccc2n([C@H]2C[C@H]3CCC[C@@H](C2)N3C2C3CC4CC(C3)CC2C4)c1=O` (stereo partly drawn) [compound 363] had an EC50 of 4090 ± 1160 nM. Compound `O=C(O)CN(CCNC(=O)c1nc2ccccc2n([C@H]2C[C@H]3CC[C@@H](C2)N3C23CC4CC(CC(C4)C2)C3)c1=O)CC(=O)O` [compound 325] yielded an EC50 of 109 ± 14 nM. As for `CC(=O)N1CC2CN(c3nc4ccccc4n(C4CCN(C5CCCCCCC5)CC4)c3=O)CC2C1` (stereo not drawn) [compound 13, 3-(5-acetylhexahydropyrrolo[3,4-c]pyrrol-2(1H)-yl)-1-(1-cyclooctylpiperidin-4-yl)quinoxalin-2(1H)-one], the EC50 was 1690 ± 166 nM. For `NC(=O)CCNc1nc2ccccc2n(C2CCN(C3CCCCCCC3)CC2)c1=O` [compound 47], a half-maximal effect (EC50) was put at 419 ± 12.7 nM.

On to `O=C(O)c1ccc(CNC(=O)c2nc3ccccc3n([C@H]3C[C@H]4CC[C@@H](C3)N4C3CCCCCCC3)c2=O)nc1` [compound 318, 6-((4-((endo)-8-cyclooctyl-8-azabicyclo[3.2.1]octan-3-yl)-3-oxo-3 ,4-dihydroquinoxaline-2-carboxamido)methyl)nicotinic acid], for which the EC50 came to 236 ± 13 nM. The compound `CN(C)c1nc2ccccc2n(C2CCN(C3CCCCCCC3)CC2)c1=O` [compound 2, 1-(1-cyclooctylpiperidin-4-yl)-3-(dimethylamino)quinoxalin-2(1H)-one] registered an EC50 of 580 ± 92 nM. In turn, `O=c1c(NC[C@@H](O)CO)nc2ccccc2n1C1CCN(C2CCCCCCC2)CC1` [compound 54] yielded an EC50 of 464 ± 28 nM. Under `O=C(O)CN1CCN(c2nc3ccccc3n([C@H]3C[C@H]4CC[C@@H](C3)N4C3CCCCCCC3)c2=O)CC1` [compound 337, 2-(4-(4-((endo)-8-cyclooctyl-8-azabicyclo[3.2.1]octan-3-yl)-3-oxo-3,4-dihydroquinoxalin-2-yl)piperazin-1-yl)acetic acid] stands 438 ± 15 nM; under `CS(=O)(=O)N[C@@H]1CCN(c2nc3ccccc3n(C3CCN(C4CCCCCCC4)CC3)c2=O)C1` [compound 66], 108 ± 15.1 nM; under `O=C(Nc1ccc(=O)[nH]c1)c1nc2ccccc2n(C2CCN(C3CCCCCCC3)CC2)c1=O` [compound 82], 181 ± 9.8 nM.

For `O=c1c(NC[C@H](O)CO)nc2ccccc2n1C1CCN(C2CCCCCCC2)CC1` [compound 55], it took 421 ± 50 nM to reach a half-maximal effect (EC50). The compound `CC(NC(=O)c1nc2ccccc2n([C@H]2C[C@H]3CC[C@@H](C2)N3C2CCCCCCC2)c1=O)C(=O)O` (stereo partly drawn) [compound 312, 2-(4-((endo)-8-cyclooctyl-8-azabicyclo[3.2.1]octan-3-yl)-3-oxo-3,4-dihydroquinoxaline-2-carboxamido)propanoic acid] displayed an EC50 of 138 ± 8.1 nM.
